Experimental data: ChEMBL document CHEMBL3885861, “Open TG-GATES”

Organism: Rattus norvegicus
Assay: Open TG-GATES - Regimen: Single
Format: toxicity, organism-based, Sprague-Dawley
Parameters: regimen Single, gender Male, age 6 weeks
Details: in vivo, po, 30 mg/kg, route gavage, dose level High; for APTT / Bas / Eos / Fbg / Hb / Ht / Lym / MCH / MCHC / MCV / Mono / Neu / PT / Plat / RBC / Ret / WBC: tissue Blood; for KIDNEY_L / KIDNEY_R / KIDNEY_TOTAL: tissue Kidney; for LIVER: tissue Liver; for A/G / ALP / ALT / AST / BUN / CRE / Ca / Cl / DBIL / GLC / IP / K / LDH / Na / PL / RALB / TBIL / TC / TG / TP / gamma-GTP: tissue Plasma

Structure (SMILES): C=CCO [ALLYL ALCOHOL]
- TERMINAL_BW (3 h): 222.7 g
- APTT (3 h): 19.6 s
- Bas (3 h): 0%
- Eos (3 h): 1%
- Fbg (3 h): 211.6 mg/dL
- Hb (3 h): 13.4 g/dL
- Ht (3 h): 38.7%
- Lym (3 h): 75%
- MCH (3 h): 21.7 pg
- MCHC (3 h): 34.8%
- MCV (3 h): 62.3 fL
- Mono (3 h): 3%
- Neu (3 h): 20.4%
- PT (3 h): 12.4 s
- Plat (3 h): 134.6 x10_4/uL
- RBC (3 h): 622.4 x10_4/ul
- Ret (3 h): 7.4%
- WBC (3 h): 88.9 x10_2/uL
- KIDNEY_L (3 h): 1 g
- KIDNEY_R (3 h): 1 g
- KIDNEY_TOTAL (3 h): 1.9 g
- LIVER (3 h): 10.3 g
- A/G (3 h): 1.5
- ALP (3 h): 976.6 IU/L
- ALT (3 h): 42.8 IU/L
- AST (3 h): 77.2 IU/L
- BUN (3 h): 12 mg/dL
- CRE (3 h): 0.3 mg/dL
- Ca (3 h): 11 mg/dL
- Cl (3 h): 101.6 meq/L
- DBIL (3 h): 0.5 mg/dL
- GLC (3 h): 202.2 mg/dL
- IP (3 h): 8.9 mg/dL
- K (3 h): 3.7 meq/L
- LDH (3 h): 233.4 IU/L
- Na (3 h): 140.8 meq/L
- PL (3 h): 177 mg/dL
- RALB (3 h): 3.4 g/dL
- TBIL (3 h): 0.6 mg/dL
- TC (3 h): 80 mg/dL
- TG (3 h): 255 mg/dL
- TP (3 h): 5.6 g/dL
- gamma-GTP (3 h): 1.2 IU/L
- TERMINAL_BW (6 h): 220.4 g
- APTT (6 h): 19.3 s
- Bas (6 h): 0%
- Eos (6 h): 1%
- Fbg (6 h): 217 mg/dL
- Hb (6 h): 13.5 g/dL
- Ht (6 h): 39.5%
- Lym (6 h): 67%
- MCH (6 h): 20.5 pg
- MCHC (6 h): 34%
- MCV (6 h): 60.2 fL
- Mono (6 h): 5.2%
- Neu (6 h): 25.8%
- PT (6 h): 12.4 s
- Plat (6 h): 129.3 x10_4/uL
- RBC (6 h): 658 x10_4/ul
- Ret (6 h): 7.1%
- WBC (6 h): 127.5 x10_2/uL
- KIDNEY_L (6 h): 0.9 g
- KIDNEY_R (6 h): 0.9 g
- KIDNEY_TOTAL (6 h): 1.9 g
- LIVER (6 h): 9.4 g
- A/G (6 h): 1.4
- ALP (6 h): 1023.4 IU/L
- ALT (6 h): 101.2 IU/L
- AST (6 h): 168.4 IU/L
- BUN (6 h): 10.2 mg/dL
- CRE (6 h): 0.4 mg/dL
- Ca (6 h): 10.5 mg/dL
- Cl (6 h): 102.4 meq/L
- DBIL (6 h): 0.1 mg/dL
- GLC (6 h): 198.4 mg/dL
- IP (6 h): 9.2 mg/dL
- K (6 h): 3.8 meq/L
- LDH (6 h): 564.8 IU/L
- Na (6 h): 140.6 meq/L
- PL (6 h): 168 mg/dL
- RALB (6 h): 3.1 g/dL
- TBIL (6 h): 0.2 mg/dL
- TC (6 h): 85.4 mg/dL
- TG (6 h): 97.6 mg/dL
- TP (6 h): 5.3 g/dL
- gamma-GTP (6 h): 2 IU/L
- TERMINAL_BW (9 h): 216.4 g
- APTT (9 h): 18.7 s
- Bas (9 h): 0%
- Eos (9 h): 1%
- Fbg (9 h): 222.2 mg/dL
- Hb (9 h): 13.2 g/dL
- Ht (9 h): 38.8%
- Lym (9 h): 66.8%
- MCH (9 h): 21.3 pg
- MCHC (9 h): 34.1%
- MCV (9 h): 62.5 fL
- Mono (9 h): 3.2%
- Neu (9 h): 28.6%
- PT (9 h): 12.4 s
- Plat (9 h): 129.2 x10_4/uL
- RBC (9 h): 620.6 x10_4/ul
- Ret (9 h): 7.4%
- WBC (9 h): 104.8 x10_2/uL
- KIDNEY_L (9 h): 1 g
- KIDNEY_R (9 h): 1 g
- KIDNEY_TOTAL (9 h): 2 g
- LIVER (9 h): 9.3 g
- A/G (9 h): 1.5
- ALP (9 h): 1007 IU/L
- ALT (9 h): 30.6 IU/L
- AST (9 h): 64.2 IU/L
- BUN (9 h): 11.4 mg/dL
- CRE (9 h): 0.4 mg/dL
- Ca (9 h): 10.3 mg/dL
- Cl (9 h): 101.4 meq/L
- DBIL (9 h): 0.086 mg/dL
- GLC (9 h): 206.8 mg/dL
- IP (9 h): 10.5 mg/dL
- K (9 h): 4.2 meq/L
- LDH (9 h): 200 IU/L
- Na (9 h): 139 meq/L
- PL (9 h): 141.2 mg/dL
- RALB (9 h): 3.1 g/dL
- TBIL (9 h): 0.1 mg/dL
- TC (9 h): 73 mg/dL
- TG (9 h): 63.8 mg/dL
- TP (9 h): 5.2 g/dL
- gamma-GTP (9 h): 0.8 IU/L
- TERMINAL_BW (24 h): 231.4 g
- APTT (24 h): 18.2 s
- Bas (24 h): 0%
- Eos (24 h): 1%
- Fbg (24 h): 257.2 mg/dL
- Hb (24 h): 13 g/dL
- Ht (24 h): 38.3%
- Lym (24 h): 67.4%
- MCH (24 h): 20.9 pg
- MCHC (24 h): 34.1%
- MCV (24 h): 61.4 fL
- Mono (24 h): 4.4%
- Neu (24 h): 26.8%
- PT (24 h): 11.9 s
- Plat (24 h): 138.1 x10_4/uL
- RBC (24 h): 625 x10_4/ul
- Ret (24 h): 6.1%
- WBC (24 h): 103.6 x10_2/uL
- KIDNEY_L (24 h): 1 g
- KIDNEY_R (24 h): 1 g
- KIDNEY_TOTAL (24 h): 2 g
- LIVER (24 h): 11.5 g
- A/G (24 h): 1.4
- ALP (24 h): 963.8 IU/L
- ALT (24 h): 33.6 IU/L
- AST (24 h): 64 IU/L
- BUN (24 h): 12.6 mg/dL
- CRE (24 h): 0.4 mg/dL
- Ca (24 h): 10.4 mg/dL
- Cl (24 h): 102.4 meq/L
- DBIL (24 h): 0.052 mg/dL
- GLC (24 h): 203.8 mg/dL
- IP (24 h): 7.6 mg/dL
- K (24 h): 3.6 meq/L
- LDH (24 h): 209.8 IU/L
- Na (24 h): 141 meq/L
- PL (24 h): 148 mg/dL
- RALB (24 h): 3 g/dL
- TBIL (24 h): 0.1 mg/dL
- TC (24 h): 81.6 mg/dL
- TG (24 h): 83 mg/dL
- TP (24 h): 5.1 g/dL
- gamma-GTP (24 h): 0.8 IU/L
